Values quoted from earlier work as cited in patent publication US20240115593A1, “METHISOPRINOL COMPOSITIONS” (priority 2020, published 2024).

Settings: water solution without additional 1-dimethylaminopropan-2-ol 4-acetamidobenzoate, stored at +20° C. to +2° C.

- time after which Methisoprinol crystallizes out: 6 days
Substance: Methisoprinol
